From patent US8524755B2 (priority 2009, dated 2013)

Tests used:
[1] = tested on: 5-HT (ns); assay: Binding 5-HT (ns) (ag); parameters: species or system rat
Method: (§1) Radioligand binding assay methods utilized to measure the activity of compounds of the invention will be familiar to those skilled in the art. In each assay case, the assay components such as, for example, the cell-type, ligand, reference compound and the like, will be familiar to practitioners of such an assay.
(§2) Analysis and Expression of Results: Compounds of the invention were tested in the biochemical assays and percent inhibition of specific binding was determined. The specific ligand binding to the receptors is defined as the difference between the total binding and the nonspecific binding determined in the presence of an excess of unlabelled ligand. The results are expressed as a percent inhibition of control specific binding (100−((measured specific binding/control specific binding)×100)) obtained in the presence of test compounds.

[2] = tested on: adenylyl cyclase (basal); assay: Enzyme assay adenylyl cyclase (basal); type: biochemical, rat
Excerpt: (§3) The enzyme assays provided below will be familiar to those skilled in the art.
(§4) Analysis and Expression of Results: The results are expressed as a percent of control specific activity ((measured specific activity/control specific activity)×100) obtained in the presence of the test compounds.

[3] = Quantification of RD162′ metabolites in human plasma; type: in vivo; conditions: for Concentrations in Patients' Plasma Expressed as a Percentage of the Concentration of RD162′, Average / Concentrations in Patients' Plasma Expressed as a Percentage of the Concentration of RD162′, Maximum / Concentrations in Patients' Plasma Expressed as a Percentage of the Concentration of RD162′, Minimum: 18 patients; for Concentrations in Patients' Plasma Expressed as a Percentage of the Concentration of RD162′, Minimum: RD162′ 150 to 480 mg per day, approx. three months; for concentration in the plasma (in words): plasma of 18 prostate cancer patients on RD162′
Method: The method used to derive the above data was as follows. Electrospray LC/MS/MS Assay of RD162′ Metabolites ((MI), (MII), (MIII)):
Plasma Extraction Procedures for Concentration Determinations: A human plasma sample (50 μL) was added to a 10-mL glass tube. A 10-μL volume of IS stock solution was added to the tube, followed by addition of 1 M phosphate buffer at pH 3.0 (400 μL). The mixture was vortexed and […] (5 mL) was added. The tube was vortexed for 30 sec and then centrifuged at 4540 g for 10 min. The solvent was transferred to a glass tube and dried under air flow at 35-40° C. The sample was reconstituted with 100 μL of methanol: 0.1% formic acid in water (7:3) vortexed for 30 sec, and sonicated for 5 min. The sample was transferred to an HPLC sample vial and centrifuged at 4540 g for 5 min. A 20-μL volume was then injected onto an LC/MS/MS system for assay.
HP1100 LC Pump Initial Conditions: HPLC Column: ACE C18, 5 μM, 150×2.1 mm id. Solvents: A % 40.0; B % 60.0; C % 0.0; D % 0.0; Valve A set to channel 1; Valve B set to channel 1. Flow: 0.300 mL/min; Stop Time: 9.0 min; MM. Pressure: 0 bar; Max. Pressure: 300 bar; Oven Temperature Left: 30.0° C.; Oven Temperature Right: 30.0° C.
LC/MS/MS Parameters for RD162′ Metabolite (MI)
Instrument Parameters—Function 1: Polarity ES-; Data type: MRM data; Function type: MRM of 5 channels.
HPLC Column: ACE C18, 5 μM, 150×2.1 mm id; HP1100 LC Pump mode: Isocratic; Isocratic solvent conditions: A % 25.0; B % 75.0; C % 0.0; D % 0.0; Valve A set to channel 1; Valve B set to channel 1; Flow: 0.300 mL/min; Stop Time: 4.5 min; Min. Pressure: 0 bar; Max. Pressure: 300 bar: Oven Temperature Left: 30.0° C.; Oven Temperature Right: 30.0° C.

[4] = tested on: Adrenergic α2 (ns); assay: Binding α2 (ns) (aa); parameters: species or system rat
Method: as §1, §2

[5] = molecular target: T1, Estrogen ER (ns) (h) (Homo sapiens, UniProt P03372); assay: Binding ER (ns) (h) (ag); conditions: read-out: % Inhibition of Control Specific Binding @ 10 μM
T1 construct: MCF-7 cells (cytosol); endogenous in cells; host or cells: MCF-7 cells (cytosol)
T1 sequence (P03372 whole entry): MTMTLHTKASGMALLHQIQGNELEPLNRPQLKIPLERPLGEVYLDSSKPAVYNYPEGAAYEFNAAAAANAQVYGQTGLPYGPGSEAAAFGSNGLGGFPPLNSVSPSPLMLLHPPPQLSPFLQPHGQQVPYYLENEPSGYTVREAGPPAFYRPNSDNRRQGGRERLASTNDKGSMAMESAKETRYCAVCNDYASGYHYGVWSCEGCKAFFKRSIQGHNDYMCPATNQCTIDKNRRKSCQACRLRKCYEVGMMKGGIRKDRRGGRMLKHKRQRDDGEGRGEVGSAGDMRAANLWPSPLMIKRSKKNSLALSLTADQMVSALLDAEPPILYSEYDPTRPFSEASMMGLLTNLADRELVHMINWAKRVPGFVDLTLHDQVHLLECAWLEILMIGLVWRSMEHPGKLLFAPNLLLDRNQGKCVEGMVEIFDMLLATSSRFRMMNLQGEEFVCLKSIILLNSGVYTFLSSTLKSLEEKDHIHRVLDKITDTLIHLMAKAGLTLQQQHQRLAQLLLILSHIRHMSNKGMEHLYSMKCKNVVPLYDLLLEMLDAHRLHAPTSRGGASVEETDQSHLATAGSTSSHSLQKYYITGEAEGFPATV
Method: as §1, §2

[6] = molecular target: T2, BLT1 (LTB4) (h) (Homo sapiens, UniProt Q15722); assay: Binding BLT1 (LTB4) (h) (ag); conditions: read-out: % Inhibition of Control Specific Binding @ 10 μM
T2 construct: expressed in transfected cells; host or cells: CHO cells
T2 sequence (Q15722 whole entry): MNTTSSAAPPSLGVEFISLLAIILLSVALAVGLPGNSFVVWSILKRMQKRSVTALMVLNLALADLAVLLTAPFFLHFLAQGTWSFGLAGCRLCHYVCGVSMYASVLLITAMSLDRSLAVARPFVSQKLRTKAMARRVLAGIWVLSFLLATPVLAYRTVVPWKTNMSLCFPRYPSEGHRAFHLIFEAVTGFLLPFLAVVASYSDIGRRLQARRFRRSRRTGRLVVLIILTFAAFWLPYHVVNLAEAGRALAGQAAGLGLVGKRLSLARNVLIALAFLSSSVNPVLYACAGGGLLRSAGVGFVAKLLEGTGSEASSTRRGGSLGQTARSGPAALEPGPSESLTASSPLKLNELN
Method: as §1, §2

[7] = molecular target: T3, guanylyl cyclase (basal) (Bos taurus, UniProt P16068+P19687); assay: Enzyme assay guanylyl cyclase (basal); type: biochemical, bovine
T3 construct: bovine lung; from tissue; host or cells: bovine lung
T3 sequence (P19687 1-691): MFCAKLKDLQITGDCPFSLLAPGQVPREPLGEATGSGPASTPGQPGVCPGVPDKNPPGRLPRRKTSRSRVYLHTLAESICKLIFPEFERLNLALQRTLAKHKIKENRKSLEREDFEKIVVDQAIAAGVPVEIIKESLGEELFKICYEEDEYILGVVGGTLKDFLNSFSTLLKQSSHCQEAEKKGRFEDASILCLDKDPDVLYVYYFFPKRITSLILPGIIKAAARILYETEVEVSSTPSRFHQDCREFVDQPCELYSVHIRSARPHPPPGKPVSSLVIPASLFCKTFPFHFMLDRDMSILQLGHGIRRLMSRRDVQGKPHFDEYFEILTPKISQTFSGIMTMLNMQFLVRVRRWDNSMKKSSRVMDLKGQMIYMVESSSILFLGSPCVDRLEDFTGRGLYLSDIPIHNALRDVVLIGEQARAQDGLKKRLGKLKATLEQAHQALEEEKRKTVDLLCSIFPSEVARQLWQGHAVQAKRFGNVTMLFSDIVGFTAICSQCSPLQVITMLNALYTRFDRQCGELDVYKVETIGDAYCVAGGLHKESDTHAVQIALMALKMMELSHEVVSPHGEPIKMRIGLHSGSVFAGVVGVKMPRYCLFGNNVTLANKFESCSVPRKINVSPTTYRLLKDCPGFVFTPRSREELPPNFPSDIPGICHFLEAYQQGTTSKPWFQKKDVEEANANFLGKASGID
T3 sequence (P16068 1-619): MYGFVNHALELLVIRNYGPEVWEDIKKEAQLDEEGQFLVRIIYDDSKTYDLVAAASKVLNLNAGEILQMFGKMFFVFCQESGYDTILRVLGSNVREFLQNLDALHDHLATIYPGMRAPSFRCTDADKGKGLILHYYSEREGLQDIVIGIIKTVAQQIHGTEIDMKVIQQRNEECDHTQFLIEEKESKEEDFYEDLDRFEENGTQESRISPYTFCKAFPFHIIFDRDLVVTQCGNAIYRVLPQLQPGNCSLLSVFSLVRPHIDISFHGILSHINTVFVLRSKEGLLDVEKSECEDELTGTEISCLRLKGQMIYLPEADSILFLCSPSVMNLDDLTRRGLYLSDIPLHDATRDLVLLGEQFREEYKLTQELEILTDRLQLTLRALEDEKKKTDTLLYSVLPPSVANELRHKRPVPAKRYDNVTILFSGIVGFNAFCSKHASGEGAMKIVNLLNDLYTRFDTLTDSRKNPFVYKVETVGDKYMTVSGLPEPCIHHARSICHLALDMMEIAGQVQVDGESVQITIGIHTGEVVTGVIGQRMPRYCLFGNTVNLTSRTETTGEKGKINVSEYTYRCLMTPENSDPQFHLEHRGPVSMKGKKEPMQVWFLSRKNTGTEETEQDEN
Excerpt: as §3, §4

| Structure (SMILES) | % Inhibition of Control Specific Binding @ 10 μM [1] [%] | % Stimulation Relative to Control @ 10 μM [2] [%] | Concentrations in Patients' Plasma Expressed as a Percentage of the Concentration of RD162′, Average [3] [%] | Concentrations in Patients' Plasma Expressed as a Percentage of the Concentration of RD162′, Maximum [3] [%] | Concentrations in Patients' Plasma Expressed as a Percentage of the Concentration of RD162′, Minimum [3] [%] | concentration in the plasma (in words) [3] | % Inhibition of Control Specific Binding @ 10 μM [4] [%] | inhibition at 10 µM [5] [%] | inhibition at 10 µM [6] [%] | % Stimulation Relative to Control @ 10 μM [7] [%] |
| --- | --- | --- | --- | --- | --- | --- | --- | --- | --- | --- |
| CC1(C)C(=O)N(c2ccc(C#N)c(C(F)(F)F)c2)C(=O)N1c1ccc(C(N)=O)c(F)c1 [(MIII), 4-(3-(4-cyano-3-(trifluoromethyl)phenyl)-5,5-dimethyl-2,4-dioxoimidazolidin-1-yl)-2-fluorobenzamide] | −12 | 4 | 4 | 14 | 1 | low concentrations | −7 | -2 | -4 | −1 |
| CNC(=O)c1ccc(N2C(=O)N(c3ccc(C#N)c(C(F)(F)F)c3)C(=O)C2(C)C)cc1F [(MIV), 4-(3-(4-cyano-3-(trifluoromethyl)phenyl)-5,5-dimethyl-2,4-dioxoimidazolidin-1-yl)-2-fluoro-N-methylbenzamide] | 6 | 11 | – | – | – | – | −7 | -11 | -6 | 2 |
| CC1(C)C(=O)N(c2ccc(C#N)c(C(F)(F)F)c2)C(=S)N1c1ccc(C(N)=O)c(F)c1 [(MII), 4-(3-(4-Cyano-3-(trifluoromethyl)phenyl)-5,5-dimethyl-4-oxo-2-thioxoimidazolidin-1-yl)-2-fluorobenzamide] | 14 | 3 | 112 | 204 | 49 | high concentrations | −9 | 3 | -8 | 0 |
| CC1(C)C(=O)N(c2ccc(C#N)c(C(F)(F)F)c2)C(=S)N1c1ccc(C(=O)O)c(F)c1 [(MI), 4-(3-(4-cyano-3-(trifluoromethyl)phenyl)-5,5-dimethyl-4-oxo-2-thioxoimidazolidin-1-yl)-2-fluorobenzoic acid] | 21 | 0 | 60 | 259 | 16 | high concentrations | −7 | -8 | -15 | 0 |
